Laboratory results from PubChem BioAssay AID2060885 (Molecular Pharmacology Branch, DTP, NCI, 2025).
“And” between values parts separate entries of the source, which are not always exact repeats. Equal entries are not always repeated.

Tested on: NCI-H23 complex spheroids with HUVEC/MSC, viability
Test: Anticancer human tumor NCI-H23 cell line growth inhibition [RAS];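 further: spheroids exposed to compound for 7 days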;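 on viability, T/C: 100% = DMSO vehicle control viability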
Conditions: for viability, T/C: stronger effect = lower value
From the text: RAS pathway inhibitors in Combinations in Complex Spheroids
A high-throughput screen of multi-cell type tumor spheroids was designed to identify active combinations of RAS pathway inhibitors and targeted small molecules. Complex spheroids include a stromal component modeled by human endothelial cells (HUVEC) and fibroblasts modeled by human mesenchymal stem cells (MSCs). The concentration ranges selected for each drug and investigational agent were based upon clinically achievable concentrations if the clinical Cmax of the agent was known.
Compounds. The drugs and investigational agents: abemaciclib (NSC768073), cobimetinib (NSC768068), divarasib (GDC6063, NSC841802), docetaxel (NSC628503), GDC-1971 (RLY-1971, NSC841576), gemcitabine (NSC613327), inavolisib (NSC800729), ipatasertib (NSC767898), KB-0742 (NSC834161), MRTX-1133 (NSC836407), osimertinib (NSC779217), RMC-4630 (NSC839698), RMC-6236 (NSC851965), RMC-6291 (NSC852671), Ro-3306 (NSC812927), sapanisertib (NSC764658), SN-38 (NSC673596), staurosporine (NSC755774), SY5609 (NSC837396), and tovorafenib (DAY101, NSC766906), were obtained from the National Cancer Institute (NCI) Developmental Therapeutics Program Chemical Repository. The FDA-approved anticancer drug set is available from the NCI Developmental Therapeutics Program. […] The stock solutions were prepared in dimethyl sulfoxide (DMSO, Sigma-Aldrich, St. Louis, MO, cat. D2650) at 800-fold the tested concentration and stored at -70 degrees C prior to their use. All drugs and investigational agents were tested over a range starting from a high concentration at or near the clinical Cmax and decreasing in half-log increments. If the clinical Cmax for an agent had not been determined, the highest concentration tested was 10 microM.
Cell Culture. All cells were maintained in an incubator at 37 degrees C and 5% CO2 with 95% humidity. The PDC lines were cultured according to standard operating procedures established by the NCI PDMR. All PDCs were thawed and cultured in Matrigel-coated flasks prepared with a working solution of 1X Ham's F-12 nutrient mix, without supplementation (Invitrogen, Waltham, MA, cat. 11765054), 100 U/mL penicillin-streptomycin (Invitrogen, cat. 15140122), and 2.5% Matrigel (Corning Inc., Corning, NY, cat. 354248) for the first three passages. The 362531-283-R-J2-PDC and 782815-120-R-J1-PDC lines were cultured in 6C/Colon 1B media, which includes advanced DMEM/F-12 (Thermo Fisher Scientific, cat. 12634028), 10 mM HEPES (Thermo Fisher Scientific, cat. 15630080), 1X GlutaMAX supplement (Thermo Fisher Scientific, cat. 35050061), 0.1 mg/mL primocin (InvivoGen, San Diego, CA, cat. ant-pm-2), 10% defined fetal bovine serum, heat inactivated (HyClone Laboratories Inc., Logan, UT, cat. SH30070.03HI), 50% L-WRN conditioned media (ATCC, cat. CRL-3276), 1.25 mM N-Acetyl-L-cysteine (Sigma-Aldrich, cat. A9165), 10 mM nicotinamide (Sigma-Aldrich, cat. N0636), 1X B-27 supplement (Thermo Fisher Scientific, cat. 17504044), 1X N-2 supplement (Thermo Fisher Scientific, cat. 17502048), 50 ng/mL human EGF (Thermo Fisher Scientific, cat. PHG0311), and 10 microM Y-27632 dihydrochloride (Tocris Bioscience, cat. 1254). The K12877-001-R-J1-PDC line was cultured in 6I media, which includes all 6C/Colon 1B media plus 10 ng/mL human FGF-10 (PeproTech, cat. 100-26), 1 ng/mL human FGF-2 (PeproTech, cat. 100-18B), 1 µM prostaglandin E2 (Tocris Bioscience, cat. 2296), […] hydrocortisone (Sigma-Aldrich, cat. H4001), and […] bovine insulin (Sigma-Aldrich, cat. I6634). The K86415-001-R-J1-PDC line was cultured in 6D media, which includes all 6C/Colon 1B media components minus the L-WRN conditioned media. The 485176-168-R4-J1-PDC was cultured in PANC media, which includes all 6C/Colon 1B media plus 100 ng/mL human FGF-10 (PeproTech, cat. 100-26), 500 nM SB-431542 (Selleckchem, cat. S1067), and 10 nM gastrin (Tocris Bioscience, cat. 3006). […]

[1] = compound alone, run of 07/15/2024

| Structure (SMILES) | viability, T/C (compound 0.0316 µM) | viability, T/C (compound 0.1 µM) | viability, T/C (compound 0.316 µM) | viability, T/C (compound 1 µM) | viability, T/C (compound 3.16 µM) | viability, T/C (compound 10 µM) | IC50 [1] | viability, T/C (compound 0.00316 µM) | viability, T/C (compound 0.01 µM) | IC50 (curve of compound) | viability, T/C (compound 0.000316 µM) | viability, T/C (compound 0.000949 µM) | viability, T/C (compound 0.003 µM) | viability, T/C (compound 0.00949 µM) | viability, T/C (compound 0.03 µM) | viability, T/C (compound 0.0949 µM) | viability, T/C (compound 0.3 µM) |
| --- | --- | --- | --- | --- | --- | --- | --- | --- | --- | --- | --- | --- | --- | --- | --- | --- | --- |
| C#Cc1c(F)ccc2cc(O)cc(-c3ncc4c(N5CC6CCC(C5)N6)nc(OCC56CCCN5CC(F)C6)nc4c3F)c12 (stereo unspecified) | 108% [middle of 8 runs] | 105% [middle of 8 runs] | 99.5% [middle of 8 runs] | 89.5% [middle of 8 runs] | 63.2% [middle of 8 runs] | 38.2% [middle of 7 runs] | 5.77 µM [middle of 8 runs] | – | – | – | – | – | – | – | – | – | – |
| C=CC(=O)N1CCN(c2nc(OCC3CCCN3C)nc3c(F)c(-c4nc(N)cc(C)c4C(F)(F)F)c(Cl)cc23)C(C)C1 (stereo unspecified) | 39.9% [middle of 12 runs] | 38.5% [middle of 12 runs] | 38.3% [middle of 12 runs] | 37.2% [middle of 12 runs] | – | – | 9 nM [middle of 8 runs] | 61.5% [middle of 12 runs] | 48.4% [middle of 12 runs] | 8.5 nM and < 3.16 nM and 7.59 nM | – | – | – | – | – | – | – |
| C=CC(=O)Nc1cc(Nc2nccc(-c3cn(C)c4ccccc34)n2)c(OC)cc1N(C)CCN(C)C | 102% [middle of 4 runs] | – | 107% [middle of 4 runs] | – | – | – | – | 109% (2×) and 103% and 107% | 105% [middle of 4 runs] | > 1000 nM | – | – | – | – | – | – | – |
| CC(C)NCC(C(=O)N1CCN(c2ncnc3c2C(C)CC3O)CC1)c1ccc(Cl)cc1 (stereo unspecified) | 103% [middle of 4 runs] | 97.1% [middle of 4 runs] | 102% [middle of 4 runs] | 93.3% [middle of 4 runs] | 73.3% [middle of 4 runs] | – | – | – | – | > 10000 nM and 9190 nM and 9740 nM | – | – | – | – | – | – | – |
| CC(C)n1nc(-c2ccc3oc(N)nc3c2)c2c(N)ncnc21 | 61.7% [middle of 4 runs] | 53.8% [middle of 4 runs] | – | – | – | – | – | 88.6% [middle of 4 runs] | 83% [middle of 4 runs] | 83.1 nM and > 100 nM and 67 nM | 102% and 105% (2×) and 106% | – | – | – | – | – | – |
| CC(Nc1ccc2c(c1)OCCn1cc(N3C(=O)OCC3C(F)F)nc1-2)C(N)=O (stereo unspecified) | 93.5% [middle of 4 runs] | 89.5% [middle of 4 runs] | 70.2% and 82.1% and 76.3% (2×) | 78.9% [middle of 4 runs] | 71.8% [middle of 4 runs] | 69.6% [middle of 4 runs] | – | – | – | > 10000 nM | – | – | – | – | – | – | – |
| CC1(C)CCC(Nc2ncc(C(F)(F)F)c(-c3c[nH]c4c(P(C)(C)=O)c(C#N)ccc34)n2)CN1 (stereo unspecified) | – | – | – | – | – | – | – | – | – | – | – | 86.7% [middle of 4 runs] | 73.2% [middle of 4 runs] | 51.7% [middle of 4 runs] | 49.3% [middle of 4 runs] | 45.9% [middle of 4 runs] | 48% [middle of 4 runs] |
| CC1(O)CCCC1n1c(=O)c(C(F)F)cc2cnc(NC3CCN(S(C)(=O)=O)CC3)nc21 (stereo unspecified) | 94% [middle of 4 runs] | – | 67.5% [middle of 4 runs] | 80.9% [middle of 4 runs] | 71.7% [middle of 4 runs] | 14.3% [middle of 4 runs] | – | – | – | 4.68 µM [middle of 4 runs] | – | – | – | – | – | – | – |
